Where “and” joins values, the source holds several entries; their conditions need not be identical. Identical values can stand only once.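 All cell lines were grown in 96-well plates and treated with compound for 48 hours. GI50 is the concentration that inhibits growth by half. TGI is the concentration that stops growth completely.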
Columns and labels:
Experiment in all cases: DTP human tumour cell line panel, 48 h
[1] = tested on: SF-268 CNS
[2] = tested on: LOX IMVI melanoma
[3] = tested on: ACHN renal
[4] = tested on: MOLT-4 leukemia
[5] = tested on: MALME-3M melanoma
[6] = tested on: RXF 393 renal
[7] = tested on: OVCAR-4 ovarian
[8] = tested on: UACC-62 melanoma
[9] = tested on: SK-MEL-2 melanoma
[10] = tested on: OVCAR-8 ovarian

| Compound | GI50 [1] [µM] | TGI [1] [µM] | GI50 [2] [µM] | TGI [2] | GI50 [3] [µM] | TGI [3] [µM] | GI50 [4] [µM] | TGI [4] [µM] | GI50 [5] [µM] | TGI [5] | GI50 [6] [µM] | TGI [6] | GI50 [7] | TGI [7] [µM] | GI50 [8] [µM] | TGI [8] | GI50 [9] [µM] | TGI [9] | GI50 [10] | TGI [10] [µM] |
| --- | --- | --- | --- | --- | --- | --- | --- | --- | --- | --- | --- | --- | --- | --- | --- | --- | --- | --- | --- | --- |
| CN(Cc1ccccc1)c1ncnc2ccc(Br)cc12 | 10.2 | 27.5 | 14.7 | 29.2 µM | 12.6 | 28.1 | 5.77 | 28.8 | 10.9 | 23.2 µM | 13.7 | 31 µM | 12.8 µM | 36.8 | 13.1 | 27.1 µM | 35.7 | > 100 µM | 26.1 µM | 95.5 |
| CC/C=C\C[C@H](O)C/C=C1/C(=O)C=C[C@@H]1C/C=C\CCCC(=O)OCCS(=O)(=O)c1ccccc1 | 4.37 | 22.9 | 1.44 | 3.66 µM | 3.17 | 10.3 | 2.83 | 13.4 | 6.71 | 22.3 µM | 2.75 | 6.47 µM | 4.05 µM | 16.9 | 2.48 | 6.29 µM | 4.14 | 17.9 µM | 4.07 µM | 15.3 |
| COc1ccc(C(=O)OC2C(OC3C(O)COC(O[C@H]4C[C@H]5[C@@H]6CC=C7C[C@@H](O)CC[C@]7(C)[C@H]6CC[C@]5(C)[C@H]4[C@H](C)C(=O)CCC(C)C)C3OC(=O)C(C)C)OCC(O)C2O)cc1 (stereo partly specified) | 0.0195 | 3.33 | 0.0107 | 0.0488 µM | 0.111 | 4.82 | 0.00649 | 0.0192 | 0.0411 | 2.88 µM | < 0.00275 | 0.0158 µM | 0.295 µM | 5.12 | 0.00668 | 0.0185 µM | 0.0102 | 0.213 µM | 2.82 µM | 8.4 |
| COC(=O)CCC(=O)Nc1cccc(C(F)(F)F)c1 |  | > 100 |  | > 100 µM |  | > 100 |  | > 100 |  | > 100 µM |  | > 100 µM |  | > 100 |  | > 100 µM |  | > 100 µM |  | > 100 |
| CC(=O)O[C@H]1CC[C@@]2(C)C(=CC[C@@H]3C2CC[C@]2(C)C(=O)NC(=O)CC32)C1 (stereo partly specified) |  | > 100 |  | > 100 µM |  | > 100 |  | > 100 |  | > 100 µM |  | 84.1 µM |  | > 100 |  | > 100 µM |  | > 100 µM |  | > 100 |
| OCCNC(=S)Nc1ccc(-c2nc(N3C[C@H]4CC[C@@H](C3)O4)c3cccn3n2)cc1 | 0.079 | 25.8 | 0.202 | 7.65 µM | 0.0502 | 1.86 | 0.09 | 17.1 | < 0.01 | 0.055 µM | < 0.0135 | 0.131 µM | 0.0389 µM | 0.63 | 0.018 | 0.194 µM | 0.0637 | 0.579 µM | 0.173 µM | 3.16 |
| C=C(c1ccccc1)[C@@]1(O)CCCC[C@H]1NC(c1ccccc1)c1ccccc1 |  | 27.6 |  | 21.9 µM |  | 23.9 |  | 8.24 |  | 30.7 µM |  | 22.7 µM |  | 34.5 |  | 27.8 µM |  | 27.4 µM |  | 28.1 |
| CC(C)C[C@H](NC(=O)[C@H](Cc1ccccc1)NC(=O)c1cnccn1)B(O)O | 0.00288 |  | 0.00135 | < 0.0129 µM and 0.00413 µM | 0.00181 |  | 0.00143 |  | 0.00116 | < 0.0454 µM and 0.0194 µM | 0.00119 | < 0.01 µM and 0.00255 µM | < 0.0113 µM and 0.00315 µM | 0.179 | 0.00149 | < 0.0168 µM and 0.00498 µM | 0.00172 | < 0.0223 µM and 0.0101 µM | 0.0175 µM and 0.00427 µM |  |
| O=C1/C(=N/N=C(c2ccccc2)c2ccccc2)c2ccccc2-c2ccccc21 |  | > 100 |  | > 100 µM |  | > 100 |  | > 100 |  | > 100 µM |  | > 100 µM |  | > 100 |  | > 100 µM |  | > 100 µM |  | > 100 |
| COc1ccc(/C=C(/C(=O)N2CCN(c3ccc(C)cc3)CC2)c2cc(OC)c(OC)c(OC)c2)cc1N | 0.43 | > 100 | 0.221 | > 100 µM | 0.203 | > 100 | 0.437 | > 100 | 0.503 | > 100 µM | 0.271 | > 100 µM | 3.21 µM | > 100 | 0.362 | > 100 µM | 0.64 | > 100 µM | 0.417 µM | > 100 |
| COc1ccc2c(c1)[n+]([O-])c(/C(C)=N/NC(N)=S)c(C)[n+]2[O-] |  | > 100 |  | > 100 µM |  | > 100 |  | > 83.8 |  | > 100 µM |  | > 100 µM |  | > 100 |  | > 100 µM |  | > 100 µM |  | > 100 |
| CC12CCC(=O)N1c1cc([N+](=O)[O-])ccc1N2 (stereo unspecified) |  | > 100 |  | > 100 µM |  | > 100 |  | > 100 |  | > 100 µM |  | > 100 µM |  | > 100 |  | > 100 µM |  | > 100 µM |  | > 100 |
